Measured values taken from ChEMBL document CHEMBL1125035, “Synthesis and biological activity of novel vitamin D analogues: 24,24-difluoro-25-hydroxy-26,27-dimethylvitamin D3 and 24,24-difluoro-1 alpha,25-dihydroxy-26,27-dimethylvitamin D3” (1990).

How the values were obtained:
[1] = system: Rattus norvegicus; test: Ability to mobilize Bone-Calcium transport, following the administration of compound in rats at a concentration of 5 pmol at 72 hr.; format: functional, organism-based
[2] = system: Rattus norvegicus; test: Ability to stimulate intestinal-calcium transport by the administration of compound in rats at a concentration of 5 pmol at 72 hr.; format: functional, Intestine
[3] = system: Rattus norvegicus; test: Ability to stimulate intestinal-calcium transport by the administration of compound in rats at a concentration of 5000 pmol at 13 hr.; format: functional, Intestine
[4] = system: Rattus norvegicus; test: Ability to mobilize Bone-Calcium transport, following the administration of compound in rats at a concentration of 5000 pmol at 47 hr.; format: functional, organism-based
[5] = system: Rattus norvegicus; test: Ability to mobilize Bone-Calcium transport, following the administration of compound in rats at a concentration of 5000 pmol at 72 hr.; format: functional, organism-based
[6] = system: Rattus norvegicus; test: Ability to mobilize Bone-Calcium transport, following the administration of compound in rats at a concentration of 500 pmol at 13 hr.; format: functional, organism-based
[7] = system: Rattus norvegicus; test: Ability to mobilize Bone-Calcium transport, following the administration of compound in rats at a concentration of 500 pmol at 72 hr.; format: functional, organism-based
[8] = system: Rattus norvegicus; test: Ability to mobilize Bone-Calcium transport, following the administration of compound in rats at a concentration of 50 pmol at 13 hr.; format: functional, organism-based
[9] = system: Rattus norvegicus; test: Ability to mobilize Bone-Calcium transport, following the administration of compound in rats at a concentration of 50 pmol at 47 hr.; format: functional, organism-based
[10] = system: Rattus norvegicus; test: Ability to mobilize Bone-Calcium transport, following the administration of compound in rats at a concentration of 5 pmol at 47 hr.; format: functional, organism-based
[11] = system: Rattus norvegicus; test: Ability to stimulate intestinal-calcium transport by the administration of compound in rats at a concentration of 5 pmol at 13 hr.; format: functional, Intestine
[12] = system: Rattus norvegicus; test: Ability to stimulate intestinal-calcium transport by the administration of compound in rats at a concentration of 50 pmol at 13 hr.; format: functional, Intestine
[13] = system: Rattus norvegicus; test: Ability to stimulate intestinal-calcium transport by the administration of compound in rats at a concentration of 50 pmol at 47 hr.; format: functional, Intestine
[14] = system: Rattus norvegicus; test: Ability to stimulate intestinal-calcium transport by the administration of compound in rats at a concentration of 5000 pmol at 72 hr.; format: functional, Intestine
[15] = system: Rattus norvegicus; test: Ability to stimulate intestinal-calcium transport by the administration of compound in rats at a concentration of 500 pmol at 13 hr.; format: functional, Intestine
[16] = system: Rattus norvegicus; test: Ability to stimulate intestinal-calcium transport by the administration of compound in rats at a concentration of 500 pmol at 47 hr.; format: functional, Intestine
[17] = system: Rattus norvegicus; test: Ability to mobilize Bone-Calcium transport, following the administration of compound in rats at a concentration of 5 pmol at 13 hr.; format: functional, organism-based
[18] = system: Rattus norvegicus; test: Ability to stimulate intestinal-calcium transport by the administration of compound in rats at a concentration of 50 pmol at 48 hr.; format: functional, Intestine
[19] = system: Rattus norvegicus; test: Ability to mobilize Bone-Calcium transport, following the administration of compound in rats at a concentration of 5 pmol at 69 hr.; format: functional, organism-based
[20] = system: Rattus norvegicus; test: Ability to stimulate intestinal-calcium transport by the administration of compound in rats at a concentration of 5000 pmol at 12 hr.; format: functional, Intestine
[21] = system: Rattus norvegicus; test: Ability to mobilize Bone-Calcium transport, following the administration of compound in rats at a concentration of 5000 pmol at 69 hr.; format: functional, organism-based
[22] = system: Rattus norvegicus; test: Ability to mobilize Bone-Calcium transport, following the administration of compound in rats at a concentration of 500 pmol at 12 hr.; format: functional, organism-based
[23] = system: Rattus norvegicus; test: Ability to mobilize Bone-Calcium transport, following the administration of compound in rats at a concentration of 500 pmol at 69 hr.; format: functional, organism-based
[24] = system: Rattus norvegicus; test: Ability to mobilize Bone-Calcium transport, following the administration of compound in rats at a concentration of 50 pmol at 48 hr.; format: functional, organism-based
[25] = system: Rattus norvegicus; test: Ability to mobilize Bone-Calcium transport, following the administration of compound in rats at a concentration of 50 pmol at 69 hr.; format: functional, organism-based
[26] = system: Rattus norvegicus; test: Ability to mobilize Bone-Calcium transport, following the administration of compound in rats at a concentration of 5 pmol at 12 hr.; format: functional, organism-based
[27] = system: Rattus norvegicus; test: Ability to mobilize Bone-Calcium transport, following the administration of compound in rats at a concentration of 5 pmol at 48 hr.; format: functional, organism-based
[28] = system: Rattus norvegicus; test: Ability to stimulate intestinal-calcium transport by the administration of compound in rats at a concentration of 50 pmol at 69 hr.; format: functional, Intestine
[29] = system: Rattus norvegicus; test: Ability to stimulate intestinal-calcium transport by the administration of compound in rats at a concentration of 5 pmol at 48 hr.; format: functional, Intestine
[30] = system: Rattus norvegicus; test: Ability to stimulate intestinal-calcium transport by the administration of compound in rats at a concentration of 5 pmol at 69 hr.; format: functional, Intestine
[31] = system: Rattus norvegicus; test: Ability to stimulate intestinal-calcium transport by the administration of compound in rats at a concentration of 50 pmol at 12 hr.; format: functional, Intestine
[32] = system: Rattus norvegicus; test: Ability to stimulate intestinal-calcium transport by the administration of compound in rats at a concentration of 5000 pmol at 48 hr.; format: functional, Intestine
[33] = system: Rattus norvegicus; test: Ability to stimulate intestinal-calcium transport by the administration of compound in rats at a concentration of 5000 pmol at 69 hr.; format: functional, Intestine
[34] = system: Rattus norvegicus; test: Ability to stimulate intestinal-calcium transport by the administration of compound in rats at a concentration of 500 pmol at 12 hr.; format: functional, Intestine
[35] = system: Rattus norvegicus; test: Ability to stimulate intestinal-calcium transport by the administration of compound in rats at a concentration of 500 pmol at 48 hr.; format: functional, Intestine
[36] = system: Rattus norvegicus; test: Ability to stimulate intestinal-calcium transport by the administration of compound in rats at a concentration of 500 pmol at 69 hr.; format: functional, Intestine
[37] = organism: Rattus norvegicus; test: Calcium binding protein induction in duodenal organ culture at a concentration of 100 nM in Male Albino rats; format: functional
[38] = organism: Rattus norvegicus; test: Calcium binding protein induction in duodenal organ culture at a concentration of 10 nM in Male Albino rats; format: functional
[39] = organism: Rattus norvegicus; test: Calcium binding protein induction in duodenal organ culture at a concentration of 1 nM in Male Albino rats; format: functional
[40] = Relative potency against calcium binding protein induction in duodenal organ culture at a concentration of 10 nM compared to 1,25-(OH)2-D3 in Male Albino rats; format: functional

With `C=C1CC[C@H](O)C/C1=C/C=C1\CCC[C@]2(C)[C@@H]([C@H](C)CCCC(C)(C)O)CC[C@@H]12` [CALCIFEDIOL ANHYDROUS] the Serum Ca2+ [1] was 4.32 mg/dL, the “Serosal/Mucosal Ca” value [2] was 3.59 and the “Serosal/Mucosal Ca” value [3] was 5.43. It also gave a Serum Ca2+ [4] of 6.24 mg/dL, a Serum Ca2+ [5] of 6.5 mg/dL and a Serum Ca2+ [6] of 6.22 mg/dL. The Serum Ca2+ [7] was 5.04 mg/dL, the Serum Ca2+ [8] was 4.86 mg/dL and the Serum Ca2+ [9] was 4.68 mg/dL. For the same compound, the Serum Ca2+ [10] was 4.66 mg/dL, the “Serosal/Mucosal Ca” value [11] was 2.22 and the “Serosal/Mucosal Ca” value [12] was 3.75. For the same compound, the “Serosal/Mucosal Ca” value [13] was 11.54, the “Serosal/Mucosal Ca” value [14] was 11.48 and the “Serosal/Mucosal Ca” value [15] was 3.6. For the same compound, the “Serosal/Mucosal Ca” value [16] was 9.99 and the Serum Ca2+ [17] was 4.4 mg/dL.
In the case of `C=C1/C(=C\C=C2/CCC[C@]3(C)[C@@H]([C@H](C)CCC(F)(F)C(O)(CC)CC)CC[C@@H]23)C[C@@H](O)C[C@@H]1O`, the “Serosal/Mucosal Ca” value [18] is reported as 4.25, the Serum Ca2+ [19] is reported as 4.13 mg/dL and the “Serosal/Mucosal Ca” value [20] is reported as 8.39. For the same compound, the Serum Ca2+ [21] was 4.82 mg/dL, the Serum Ca2+ [22] was 6.12 mg/dL and the Serum Ca2+ [23] was 4.87 mg/dL. For the same compound, the Serum Ca2+ [24] was 4.08 mg/dL, the Serum Ca2+ [25] was 4.02 mg/dL and the Serum Ca2+ [26] was 4.34 mg/dL. For the same compound, the Serum Ca2+ [27] was 3.98 mg/dL, the “Serosal/Mucosal Ca” value [28] was 3.04 and the “Serosal/Mucosal Ca” value [29] was 2.09. For the same compound, the “Serosal/Mucosal Ca” value [30] was 2.34, the “Serosal/Mucosal Ca” value [31] was 4.41 and the “Serosal/Mucosal Ca” value [32] was 8. For the same compound, the “Serosal/Mucosal Ca” value [33] was 8.84, the “Serosal/Mucosal Ca” value [34] was 8.92 and the “Serosal/Mucosal Ca” value [35] was 5.39. For the same compound, the “Serosal/Mucosal Ca” value [36] was 5.46.
With `C=C1/C(=C\C=C2/CCC[C@]3(C)[C@@H]([C@H](C)CCCC(C)(C)O)CC[C@@H]23)C[C@@H](O)C[C@@H]1O` [CALCITRIOL] the “Serosal/Mucosal Ca” value [18] was 4.71, the Serum Ca2+ [19] was 4.12 mg/dL and the “Serosal/Mucosal Ca” value [20] was 7. The Serum Ca2+ [21] was 4.78 mg/dL, the Serum Ca2+ [22] was 6.1 mg/dL and the Serum Ca2+ [23] was 4.48 mg/dL. The Serum Ca2+ [24] was 4.54 mg/dL, the Serum Ca2+ [25] was 4.55 mg/dL and the Serum Ca2+ [26] was 4.38 mg/dL. The Serum Ca2+ [27] was 4.08 mg/dL, the “Serosal/Mucosal Ca” value [28] was 5.69 and the “Serosal/Mucosal Ca” value [29] was 3.19. For the same compound, the “Serosal/Mucosal Ca” value [30] was 2.75, the “Serosal/Mucosal Ca” value [31] was 3.23 and the “Serosal/Mucosal Ca” value [32] was 7.22. The “Serosal/Mucosal Ca” value [33] was 4.99, the “Serosal/Mucosal Ca” value [34] was 4.06 and the “Serosal/Mucosal Ca” value [35] was 5.98. The “Serosal/Mucosal Ca” value [36] was 5.67.
In the case of `C=C1CC[C@H](O)C/C1=C/C=C1\CCC[C@]2(C)[C@@H]([C@H](C)CCC(F)(F)C(O)(CC)CC)CC[C@@H]12`, the “Ca2+ binding protein” value [37] is reported as 66.7 ug (100mg of duodenum)-1, the “Ca2+ binding protein” value [38] is reported as 22.4 ug (100mg of duodenum)-1 and the “Ca2+ binding protein” value [39] is reported as 10.1 ug (100mg of duodenum)-1. The Serum Ca2+ [1] was 4.2 mg/dL, the “Serosal/Mucosal Ca” value [2] was 2.2 and the “Serosal/Mucosal Ca” value [3] was 4.84. The Serum Ca2+ [4] was 6.16 mg/dL, the Serum Ca2+ [5] was 5.84 mg/dL and the Serum Ca2+ [6] was 5.14 mg/dL. It also gave a Serum Ca2+ [7] of 4.38 mg/dL, a Serum Ca2+ [8] of 4.14 mg/dL and a Serum Ca2+ [9] of 4.63 mg/dL. For the same compound, the Serum Ca2+ [10] was 4.34 mg/dL, the “Serosal/Mucosal Ca” value [11] was 2.3 and the “Serosal/Mucosal Ca” value [12] was 2.18. The “Serosal/Mucosal Ca” value [13] was 3.29, the “Serosal/Mucosal Ca” value [14] was 9.39 and the “Serosal/Mucosal Ca” value [15] was 5.85. The “Serosal/Mucosal Ca” value [16] was 8.04, the Relative potency [40] was 4.5 and the Serum Ca2+ [17] was 4.2 mg/dL.
